In paper PMC8294059, “Identification and Immune Assessment of T Cell Epitopes in Five Plasmodium falciparum Blood Stage Antigens to Facilitate Vaccine Candidate Selection and Optimization” (Frontiers in Immunology, 2021):
Where two headings read alike, the source gives them in different places. Where a SMILES comes first, the peptide text is derived from it.

Target: HLA-B*0702 (Homo sapiens, UniProt P01889)
Test: In vitro class I HLA binding assay (fluorescence polarization competition)
Conditions: allele B*0702
Procedure: A cell-free class I HLA binding assay that allows for in vitro quantification of peptide-HLA binding affinity in a competition format was used. In this assay, a fluorescently labeled, high binding, control peptide is loaded onto 384-well ½-area plates along with unlabeled experimental peptides. To remove endogenous peptides and render the HLA A and B molecules receptive to binding, HLA is heated at 53°C for 15 minutes and immediately added to the assay. The mixture is then allowed to stand for three days. […] Binding of experimental peptides is expressed as the percent inhibition of the labeled control peptide (experimental fluorescence / control fluorescence, multiplied by 100). The percent inhibition values for each experimental peptide (across a range of molar concentrations) are used to calculate the concentration which inhibits 50% of the labeled control peptide’s specific binding. This value is referred to as the peptide’s IC50.

[1] = fluorescence polarization competition, read-out: IC50 (nM), in vitro HLA binding affinity
[2] = fluorescence polarization competition
[3] = cell-free competition, fluorescence polarization at 72 hours, Non-binder = no dose-dependent inhibition, read-out: IC50

Molecule	IC50 (nM), in vitro HLA binding affinity [2]	other results
CC(C)C[C@H](NC(=O)[C@H](CC(N)=O)NC(=O)[C@H](CCCCN)NC(=O)[C@H](CCCNC(=N)N)NC(=O)[C@@H]1CCCN1C(=O)[C@@H](N)CS)C(=O)N[C@@H](CCC(N)=O)C(=O)N[C@@H](CC(N)=O)C(=O)N[C@@H](C)C(=O)O [AMA1_302] (H-CPRKNLQNA-OH)	–	IC50 [1]: 484 nM
MNRTFKKMM [RH5_296]	Non-binder	–
MDMKNYGTNL [RH5_330]	Non-binder	–
CC(C)C[C@H](NC(=O)[C@@H](NC(=O)[C@H](CC(N)=O)NC(=O)[C@H](CO)NC(=O)[C@H](CC(N)=O)NC(=O)[C@H](CCCNC(=N)N)NC(=O)[C@H](CC(=O)O)NC(=O)[C@H](CCC(=O)O)NC(=O)[C@@H]1CCCN1C(=O)[C@@H](N)CC(N)=O)[C@@H](C)O)C(=O)O [EBA175_1224] (H-NPEDRNSNTL-OH)	–	IC50 [3]: 2700 nM
CPENSTCEQI [RIPR_0331]	Non-binder	–
CC(C)C[C@H](NC(=O)[C@H](CC(N)=O)NC(=O)[C@H](CCC(=O)O)NC(=O)[C@H](CCCCN)NC(=O)[C@H](CS)NC(=O)[C@@H](NC(=O)[C@H](CS)NC(=O)[C@H](CCC(=O)O)NC(=O)[C@@H]1CCCN1C(=O)[C@@H](N)CCCCN)C(C)C)C(=O)O [RIPR_0836] (H-KPECVCKENL-OH)	–	IC50 [1]: 206000 nM
KSAFLPTGAF [AMA1_376]	Non-binder	–
FITSDHLRQM [RH5_469]	Non-binder	–
LQKHGFHTM [EBA175_1260]	–	IC50 (nM) (cell-free competition, fluorescence polarization at 72 hours, Non-binder = no dose-dependent inhibition): Non-binder
CC[C@H](C)[C@H](NC(=O)[C@@H](NC(=O)[C@H](C)NC(=O)[C@H](CCCCN)NC(=O)[C@@H]1CCCN1C(=O)[C@@H](N)CCSC)C(C)C)C(=O)NCC(=O)N[C@@H](CO)C(=O)N[C@@H](CO)C(=O)N1CCC[C@H]1C(=O)O [EBA175_0971] (H-MPKAVIGSSP-OH)	–	IC50 [3]: 293000 nM
IPHYTFLDYY [RH5_176]	Non-binder	–
